“Also recorded” adds a separate entry of the source.
Legend:
SC cells = assay: MTT growth inhibition in venetoclax-resistant monocytic leukemia cell line SC; format: cell-based, human; details: for Effective cell lines: SC: venetoclax-resistant human monocytic leukemia, wrapped cell
Excerpt: (§1) FIGS. 8A-8B display a schematic of an 5-ethynyl uridine click chemistry (EC)-coupled flow cytometry (EC-FCM) assay (FIG. 8A), while FIG. 8B depicts the results of an EC-FCM assay showing distinct drug-specific signatures/patterns of nascent RNA synthesis inhibition in the venetoclax sensitive leukemia cell line (K1). The MTT assay measures cell viability and proliferation as well as cytotoxicity of compounds by assessing cellular metabolic activity. The associated measurement can be described as cell viability, cell killing, and/or growth inhibition.
(§2) FIGS. 11A-11D display scatter plot representations of screening results for AI-designed NSUN1-targeting compound libraries in a venetcoclax-resistant human myeloid leukemia cell line (SC), lung cancer cell line (H82), and venetoclax resistant human […], and a schematic representation of categorization of the results. A human myeloid leukemia cell Line (SC), a lung cancer cell line (H82 or K562) were both incubated at drug concentration 10 μM/μL overnight. MTT assays were performed after 24 hours, and changes were calculated as the percentage of mean absorbance (n=3) versus mean absorbance of drug-free control (n=3). Negative outliers indicated in red ovals. FIG. 11A depicts the results of an NSUN1-targeting drug library, 74 drugs, comparing growth/inhibition in H-82 (Y axis) and SC (X axis) cell lines. FIG. 11B depicts the results of an NSUN2-targeting drug library, 102 drugs, comparing growth/inhibition in H-82 (Y axis) and SC (X axis) cell lines. FIG. 11C depicts the results of an NSUN1-targeting drug library, 74 drugs, comparing growth/inhibition in K562 (Y axis) and SC (X axis) cell lines. FIG. 11D is a schematic representation showing categorization of the results from screens performed as described in FIG. 11, and validation experiments as described in FIG. 12.
(§3) FIGS. 12A-12J display bar graphs displaying the results of validation experiments for small molecule inhibitors of NSUN1/2-ACS interactions as identified herein. Drug validation of select SC, H82, and/or K562 inhibiting compounds in mouse acute myeloid leukemia cell Line (C1498), SC cells, H82 cells, and/or K562 cells. NSUN1-17 and/or venetoclax acted as controls. Inhibition of cell vitality was identified as dose-dependent for certain small molecules, not merely cytotoxic. In brief, stock with concentration 0.4×10^6 test (e.g., SC, H82, K562, or C1498, as labelled) cells/mL, and 10 μM/μL drug was serially diluted into drug-free cell stock to reach concentrations of 1 μM/μL and […] and split into 100 μL volumes in a 96-well plate. MTT assays performed after 24 hour incubation. Percentages calculated as a difference in mean absorbance of each drug triplicate and mean absorbance in drug-free cell triplicate. Red bars represent standard errors. The concentration of drug represented by each column is from left to right as written in the figure keys. FIGS. 12A-12E provide results from independent repeats for different groupings of small molecules tested against C1498 cells. FIGS. 12F-12G provide results from independent repeats for different groupings of small molecules tested against H82 cells. FIGS. […] provide results from independent repeats for different groupings of small molecules tested against SC cells. FIG. 12J provide results from an assay against K562 cells.
The inventors then designed a protocol for functional screening of NSUN1/2-targeting supercomputing/AI-derived compound libraries as schematically presented in FIGS. 5A-5G. Briefly, the library compounds were obtained from various chemical companies/vendors and dissolved in DMSO, and then applied to 96-well plates that contained leukemia and/or other cancer cells that were resistant to venetoclax. […]

H82 cells = assay: MTT growth inhibition in venetoclax-resistant lung cancer cell line H82; format: cell-based, human; details: H82, venetoclax-resistant human lung cancer, wrapped cell
Excerpt: as §1, §2
FIGS. 12A-12J display bar graphs displaying the results of validation experiments for small molecule inhibitors of NSUN1/2-ACS interactions as identified herein. Drug validation of select SC, H82, and/or K562 inhibiting compounds in mouse acute myeloid leukemia cell Line (C1498), SC cells, H82 cells, and/or K562 cells. NSUN1-17 and/or venetoclax acted as controls. Inhibition of cell vitality was identified as dose-dependent for certain small molecules, not merely cytotoxic. In brief, stock with concentration 0.4×10^6 test (e.g., SC, H82, K562, or C1498, as labelled) cells/mL, and 10 μM/μL drug was serially diluted into drug-free cell stock to reach concentrations of 1 μM/μL and […] and split into 100 μL volumes in a 96-well plate. MTT assays performed after 24 hour incubation. Percentages calculated as a difference in mean absorbance of each drug triplicate and mean absorbance in drug-free cell triplicate. […]

C1498 cells = assay: MTT growth inhibition in myeloid leukemia cell line C1498; format: cell-based, mouse; details: C1498, mouse myeloid leukemia, wrapped cell
Excerpt: as §1, §3
(§4) The inventors then designed a protocol for functional screening of NSUN1/2-targeting supercomputing/AI-derived compound libraries as schematically presented in FIGS. 5A-5G. Briefly, the library compounds were obtained from various chemical companies/vendors and dissolved in DMSO, and then applied to 96-well plates that contained leukemia and/or other cancer cells that were resistant to venetoclax. Both the routine colorimetric assay (MTT assay) and the newly developed NSUN1/2-targeting fluorescence quenching and release (FQR) assay were performed to select bioactive compounds for further quantitative study to confirm that they targetNSUN1/2 and their associated ACS. As described below, the compound libraries screened through cancer cell proliferation and/or NSUN1/2 localization to the ACS successfully identified numerous promising compounds that can inhibit the leukemia cell growth and appear to target the NSUN1-mediated ACS (see Table 2). This success has proven the feasibility and efficacy of the described supercomputing/AI design and functional screening of the NSUN1/2-targeting drug libraries. In some aspects, screening is conducted using drug-resistant cell lines. In some aspects, screening is conducted using drug-sensitive cell lines. In some aspects, screening is conducted in leukemia cell lines. In some aspects, screening is conducted in other cancer cell lines besides leukemia (e.g., lung cancer cell lines). In some aspects, NSUN1/2-ACS inhibitors identified are verified in additional cell lines and/or animal models (see e.g., Tables 4-6).

[1] = system: leukemia and lung cancer cell lines; assay: Functional (MTT) screening of NSUN1/2-targeting libraries in leukemia and lung cancer cell lines; format: cell-based, human; details: for Bioactive positive hit, tumor cell growth inhibition and lineage preference: leukemia and lung cancer cell lines; for Efficacy of tumor cell growth inhibition: multiple leukemia lines and/or lung cancer cell lines
Experimental: as §2, §3
as §4, with “In some aspects, screening is conducted using drug-sensitive cell lines. In some aspects, screening is conducted in leukemia cell lines. In some aspects, screening is conducted in other cancer cell lines besides leukemia (e.g., lung cancer cell lines). In some aspects, NSUN1/2-ACS inhibitors identified are verified in additional cell lines and/or animal models (see e.g., Tables 4-6).” left out

[2] = target: NSUN2-mitochondrial RNA polymerase (POLRMT) interaction (Homo sapiens, UniProt Q08J23); assay: PL-RCA-FCM, NSUN2-POLRMT interaction; format: cell-based
Excerpt: (§5) FIG. 23 provides PL-RCA-FCM results and an associated schematic showing that NSUN2-11 can disrupt the interactions between NSUN2 and mitochondrial RNA polymerase (POLRMT) as well as mitochondrial translation initiation factor 3 (MTIF3). RNA:m5C/NSUN1/2-mediated transcription and translation complexes (RNATTC) mediate multidrug resistance through regulating multi-bioprocesses and multi-organelles' functions in cancer cells.
(§6) The PL-RCA-CM/imaging technique utilized in the inventors previous work (Cheng, J. X. et al., Nature Communications 2018) was suitable to visualize and semi-quantify the NSUN1/2-mediated ACS in cells. However, the previous technique had the disadvantage of having a low sensitivity and low throughput. To overcome this bottleneck, as described herein, the inventors developed NSUN1/2-targeting fluorescence quenching and release (FQR) plate assay (FIG. 6A) and PL-RCA flow cytometry (PL-RCA-FCM) technology (FIG. 6B) for screening of NSUN1/2-targeting drug libraries and quantitatively measuring NSUN1/2-mediated ACS with and without drugs in a lineage-specific and high-throughput manner. The new PL-RCA-FCM detected very strong PL-RCA signals (>2 logs) of the NSUN2-mediated interactions with m5C, RNAPII CTD2-S2P and BRD4, particularly in the venetoclax-resistant leukemia cells (SC) (FIG. 6C), in comparison to the venetoclax-sensitive K1 cells (FIG. 6D).

[3] = target: T1, NSUN1-eRNAPII interaction (Homo sapiens, UniProt P46087); assay: PL-RCA-FCM, NSUN1-eRNAPII interaction; format: cell-based
T1 construct: RNAPII
Excerpt: (§7) FIGS. 5A-5G display a pipeline of computational design and functional screening of small-molecule compound libraries as well as exemplary characterization and validation of identified positive hit compounds and their targets. FIGS. 5A-5D display an exemplary experimental procedure, beginning with characterization of NSUN1 and/or NSUN2 putative binding modules for interaction with ACS components (FIGS. 5A-5B), a graphic displaying the design of a small molecule library and testing of the putative small molecule NSUN1/2-ACS inhibitors in cell lines (FIG. 5C), characterization of the NSUN1/2-ACS inhibitors interactions with the ACS machinery (FIG. 5D).
(§8) Black=negative control, blue=positive control, no drug=red.
(§9) The PL-RCA-CM/imaging technique utilized in the inventors previous work (Cheng, J. X. et al., Nature Communications 2018) was suitable to visualize and semi-quantify the NSUN1/2-mediated ACS in cells. […] To overcome this bottleneck, as described herein, the inventors developed NSUN1/2-targeting fluorescence quenching and release (FQR) plate assay (FIG. 6A) and PL-RCA flow cytometry (PL-RCA-FCM) technology (FIG. 6B) for screening of NSUN1/2-targeting drug libraries and quantitatively measuring NSUN1/2-mediated ACS with and without drugs in a lineage-specific and high-throughput manner. […]

NSUN2-c-MYC interaction = NSUN2-c-MYC interaction (Homo sapiens, UniProt Q08J23); assay: PL-RCA-FCM, NSUN2-c-MYC interaction; format: cell-based
Excerpt: as §8, §6

[4] = target: T2, NSUN2-RNA polymerase II (RNAPII) interaction (Homo sapiens, UniProt Q08J23); assay: PL-RCA-FCM, NSUN2-RNAPII interaction; format: cell-based
T2 construct: RNAPII CTD2-S2P
Excerpt: as §8, §6

[5] = target: NSUN2-mitochondrial translation initiation factor 3 (MTIF3) interaction (Homo sapiens, UniProt Q08J23); assay: PL-RCA-FCM, NSUN2-MTIF3 interaction; format: cell-based
Excerpt: as §5, §6

NSUN1-c-MYC interaction = NSUN1-c-MYC interaction (Homo sapiens, UniProt P46087); assay: PL-RCA-FCM, NSUN1-c-MYC interaction; format: cell-based
Excerpt: as §7, §8, §9

Sequence of NSUN2-mitochondrial RNA polymerase (POLRMT) interaction (Q08J23 whole entry): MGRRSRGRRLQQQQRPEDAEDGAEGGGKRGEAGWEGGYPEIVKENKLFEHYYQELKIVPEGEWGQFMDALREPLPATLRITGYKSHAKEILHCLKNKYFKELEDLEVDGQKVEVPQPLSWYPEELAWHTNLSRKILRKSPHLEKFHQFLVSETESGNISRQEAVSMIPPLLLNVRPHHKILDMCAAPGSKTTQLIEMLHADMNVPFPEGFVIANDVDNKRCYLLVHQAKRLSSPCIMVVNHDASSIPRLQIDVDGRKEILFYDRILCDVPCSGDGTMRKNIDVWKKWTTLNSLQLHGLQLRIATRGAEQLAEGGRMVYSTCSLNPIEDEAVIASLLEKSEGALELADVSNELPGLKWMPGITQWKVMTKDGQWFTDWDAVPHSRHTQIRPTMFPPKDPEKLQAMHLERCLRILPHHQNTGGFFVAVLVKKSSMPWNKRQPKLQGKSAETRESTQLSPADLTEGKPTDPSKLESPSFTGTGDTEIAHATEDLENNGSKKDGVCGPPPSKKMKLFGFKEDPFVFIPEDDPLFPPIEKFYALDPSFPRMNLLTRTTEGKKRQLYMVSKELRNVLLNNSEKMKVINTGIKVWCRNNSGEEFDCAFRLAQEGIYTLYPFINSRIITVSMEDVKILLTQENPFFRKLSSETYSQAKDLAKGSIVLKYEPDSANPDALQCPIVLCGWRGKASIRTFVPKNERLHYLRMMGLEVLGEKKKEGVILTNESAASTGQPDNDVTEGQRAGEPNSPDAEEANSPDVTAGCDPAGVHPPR
Sequence of NSUN2-mitochondrial translation initiation factor 3 (MTIF3) interaction (Q08J23 whole entry): as above
T2 sequence (Q08J23 whole entry): as above
Sequence of NSUN2-c-MYC interaction (Q08J23 whole entry): as above
Sequence of NSUN1-c-MYC interaction (P46087 whole entry): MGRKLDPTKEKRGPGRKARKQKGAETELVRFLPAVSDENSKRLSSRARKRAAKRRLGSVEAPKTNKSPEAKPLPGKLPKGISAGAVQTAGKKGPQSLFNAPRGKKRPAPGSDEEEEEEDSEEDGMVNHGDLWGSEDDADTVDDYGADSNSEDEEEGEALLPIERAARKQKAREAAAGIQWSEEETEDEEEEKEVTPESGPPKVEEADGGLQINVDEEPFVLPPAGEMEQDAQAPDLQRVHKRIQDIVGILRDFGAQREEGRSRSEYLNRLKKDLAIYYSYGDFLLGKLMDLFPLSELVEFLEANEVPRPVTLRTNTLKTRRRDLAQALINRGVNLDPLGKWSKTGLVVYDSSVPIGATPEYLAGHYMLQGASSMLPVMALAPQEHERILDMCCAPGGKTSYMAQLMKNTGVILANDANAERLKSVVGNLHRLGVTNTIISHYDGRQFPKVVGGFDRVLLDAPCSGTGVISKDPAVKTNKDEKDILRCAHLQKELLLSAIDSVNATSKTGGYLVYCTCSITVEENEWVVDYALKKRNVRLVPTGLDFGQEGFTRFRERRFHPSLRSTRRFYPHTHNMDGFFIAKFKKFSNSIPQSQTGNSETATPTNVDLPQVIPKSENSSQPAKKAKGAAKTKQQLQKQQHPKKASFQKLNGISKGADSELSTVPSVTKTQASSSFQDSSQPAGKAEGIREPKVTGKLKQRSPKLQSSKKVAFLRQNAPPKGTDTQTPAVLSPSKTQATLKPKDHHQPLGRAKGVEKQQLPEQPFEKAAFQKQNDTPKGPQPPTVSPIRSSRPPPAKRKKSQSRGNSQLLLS
T1 sequence (P46087 whole entry): as above

Row | Structure (SMILES) | Effective cell lines: C1498 (C1498 cells) | Bioactive positive hit, tumor cell growth inhibition and lineage preference [1] | other results
1 | NC1(C(=O)NC(CCO)c2ccc(Cl)cc2)CCN(c2ncnc3[nH]ccc23)CC1 (stereo not shown) [NSUN1-9] | SC & C1498 > | inhibits tumor cell growth in a leukemia preferential manner | Effective cell lines: SC (SC cells): SC & C1498 >; Effective cell lines: H82 (H82 cells): SC & C1498 >
2 | CC(C)C[C@H](NC(=O)[C@@H](O)[C@H](N)Cc1ccccc1)C(=O)O [NSUN1-10, Bestatin or Ubenimex, reference compound] |  | inhibits tumor cell growth in a leukemia preferential manner | 
3 | Nc1ncccc1-c1cc(Cc2ccc(COc3ccccn3)cc2)no1 [NSUN1-11] |  | inhibits tumor cell growth in a non-lineage specific manner | Inhibition of growth of venetoclax-resistant leukemia (SC) cells (SC cells): inhibition of the growth of venetoclax-resistant SC cells; also recorded: inhibit drug (venetoclax)-resistant leukemia cells
4 | C=CC(=O)Nc1cccc(-c2cccc3cnc(Nc4ccc(N5CCN(CCO)CC5)c(F)c4F)nc23)c1 [NSUN1-14] |  |  | Efficacy of tumor cell growth inhibition [1]: high-efficacy of tumor cell growth inhibition
5 | CC(C)Cc1nc(NC(=O)c2cc(-c3ccc4c(c3)CCO4)n[nH]2)n[nH]1 [NSUN1-17.16] |  | inhibits tumor cell growth in a non-lineage specific manner | 
6 | NC1(Cc2ccc(Cl)cc2)CCN(c2ncnc3[nH]ccc23)CC1 [NSUN1-19] | H82 > SC & | inhibits tumor cell growth in a lung cancer preferential manner | Effective cell lines: SC (SC cells): H82 > SC &; Effective cell lines: H82 (H82 cells): H82 > SC &
7 | Nc1nc(Cn2c(=O)oc3ccccc32)nc(Nc2ccccc2)n1 [NSUN1-22] | C1498 (weakly) | inhibits tumor cell growth in a lung cancer preferential manner | 
8 | Oc1nc(Nc2ccc(Cl)cc2)nc2nccc(-c3ccncc3)c12 [NSUN1-67] |  | inhibits tumor cell growth in a non-lineage specific manner | 
9 | Cc1[nH]nc2ccc(-c3cncc(OCC(N)Cc4ccccc4)c3)cc12 (stereo not shown) [NSUN1-73] |  |  | Efficacy of tumor cell growth inhibition [1]: high-efficacy of tumor cell growth inhibition
10 | O=C(Nc1cccc(-c2nnc3n2CCCC3)c1)c1cc(-c2ccccc2)n[nH]1 [NSUN1-74] | C1498 (weakly) | inhibits tumor cell growth in a non-lineage specific manner | 
11 | COc1ccc2c(c1)CCc1c(C(=O)NCCc3nc4cc(C)ccc4[nH]3)n[nH]c1-2 [NSUN2-11] |  | inhibits tumor cell growth in a non-lineage specific manner | Effect on NSUN2-POLRMT interaction [2]: can disrupt; Effect on NSUN1 interaction with eRNAPII/RNAPII [3]: can disrupt; Effect on NSUN2-mediated interaction with c-MYC (NSUN2-c-MYC interaction): can disrupt; Effect on NSUN2-mediated interaction with RNA polymerase II [4]: can disrupt; Effect on NSUN2-MTIF3 interaction [5]: can disrupt; Effect on NSUN1 interaction with c-MYC (NSUN1-c-MYC interaction): can disrupt
12 | O=c1ccc2ccc(OCN3CCN(c4cccc5sccc45)CC3)cc2[nH]1 [NSUN2-35, reference compound] |  | inhibits tumor cell growth in a lung cancer preferential manner | 
13 | O=C(Nc1ccc(CN2CCCCC2)cc1)c1cccc(COc2ccc(Br)cc2)c1 [NSUN2-37] | H82 & SC > | inhibits tumor cell growth in a non-lineage specific manner | Effective cell lines: SC (SC cells): H82 & SC >; Effective cell lines: H82 (H82 cells): H82 & SC >

— patent US20260306459A1, “INHIBITORS OF NSUN1- AND NSUN2-MEDIATED ACTIVE STRUCTURES” (THE UNIVERSITY OF CHICAGO, priority 2023, published 2026)
